{"source": "patent US8853188B2", "about": "“Compositions and methods for cancer treatment” (Women and Infants Hospital of RI, Inc., priority 2005, dated 2014)", "key": {"SMS-KCNR cells": {"tested_on": "SMS-KCNR cells", "assay": "Apoptosis in apoptosis-resistant NB cells", "assay_type": "cell-based", "details": "pretreatment before B3CD", "procedure": "(§1) NB is characterized with defective apoptotic pathways. […] Neuronal (N-) type SH-SY5Y and IMR-32 cells, and stromal (S-) type SMS-KCNR cells which are resistant to apoptosis were used. […] A defect in caspase-8 or its activation causes resistance to apoptosis and in turn to chemotherapy in all these cells. On the other hand, these cells carry intact intrinsic apoptotic pathway, and executioner caspase-3 is activated by caspase-9 route.\n(§2) In depth studies were carried out to assess the activation of intrinsic and extrinsic apoptotic pathways. […] Caspase-9 was activated by B3CD in these cells (FIG. 10B), indicating an active role of intrinsic pathway of apoptosis. […] However, caspase-8 was undetectable in IMR-32 and SH-SY5Y cells.\n(§3) Although caspase-8 was detected in SMS-KCNR cells, it was not activated by B3CD (FIG. 10D). Actin immunoblotting was used as loading control in the above studies (data not shown)."}, "IMR-32 cells": {"tested_on": "IMR-32 cells", "assay": "Apoptosis in apoptosis-resistant NB cells", "assay_type": "cell-based", "details": "IMR-32, pretreatment before B3CD", "procedure": "as §1, §2, §3"}, "[1]": {"tested_on": "SH-SY5Y, IMR-32 and SMS-KCNR cells", "details": "cells with defects in caspase-8 activation; cited from earlier work"}, "SK-N-SH cells [2]": {"tested_on": "SK-N-SH cells", "assay": "Proliferation by BrdU incorporation assay", "assay_type": "cell-based", "details": "0-800 nM, 48 hours", "procedure": "(§4) SK-N-SH and SH-SY5Y neuroblastic cells were treated with increasing doses of calcidiol or B3CD (0, 25, 50, 100, 200, 400 and 800 nM) for 48 hours. Cell viability was assessed by MTS assay and proliferation was determined by BrdU incorporation assay."}, "SK-N-SH cells [3]": {"tested_on": "SK-N-SH cells", "assay": "Cell viability by MTS assay", "assay_type": "cell-based", "details": "0-800 nM, 48 hours", "procedure": "as §4"}, "panel of cancer cells": {"tested_on": "panel of cancer cells", "assay": "Antiproliferative and cytotoxic activity on a panel of cancer cells (MTS, 96 well plates)", "assay_type": "cell-based", "details": "parent compound used as control; data not shown", "description": "A panel of cancer cells is used to evaluate the antiproliferative and cytotoxic activities of B3CD and related analogs. The cells include colon (Colo), breast (MCF-7 and MDA-MB-231), lung (A549), prostate PC3 and LNCaP), melanoma (SK-MEL-31), renal (Caki-1), ovarian (OVCAR-3), bladder (T24), pancreatic (BxPC-3), hepatocarcinoma (Hep3B), neuroblastoma (SH-SY5Y), glioblastoma (SNB-19), medulloblastoma (D283 Med), skin (LS123), squamous cell carcinoma (Scc-15), acute promyelocytic leukemia (APL), myeloblastic (HL-60) and myelomonocytic (U937).\nThe anticancer activity testing will be carried out by high throughput screening. The cancer cells will be cultured in 96 well plates and treated with the library. B3CD has been tested in this system and was effective at a 200 nM dose. For general screening, 2-200 nM doses will be used. Cells will be treated with the compounds for 12, 24, 48 and 72 hours. A 96 well plate format allows testing a large number of compounds simultaneously. An MTS based colorimetric method of evaluation of proliferation will be utilized, which is widely used in cancer drug discovery. The fingerprint of profiled drugs using 60 cell-line screening program by NCl using COMPARE algorithm (Paull K D, Shoemaker R H, Hodes L, Monks A, Scudiero D A, Rubinstein L, Plowman J, Boyd M R. Display and analysis of patterns of differential activity of drugs against human tumor cell lines: development of mean graph and COMPARE algorithm. J Natl Cancer Inst 1989; 81:1088).\n(§5) Materials and methods. Proliferation was measured by MTS and BrdU incorporation assays. Apoptosis was assessed by DNA fragmentation, Cell Death Detection ELISA and caspase-3-assays. Effect of B3CD on TrkB signaling by BDNF was assessed by Western Blot analysis of AKT and ERK phosphorylation. The effect on angiogenesis was determined by chick chorioallantoic membrane (CAM) assay and aortic ring assay."}, "caspase-3": {"tested_on": "caspase-3", "assay": "Caspase-3 activation with specific substrate in SK-N-SH cells", "assay_type": "cell-based", "procedure": "Caspases are integral to apoptosis in cells. Following the treatment of SK-N-SH cells with 250 nM B3CD, activation of caspase-3 was measured by using specific substrate."}, "[4]": {"tested_on": "VEGF induced angiogenesis", "assay": "Chick chorioallantoic membrane (CAM) assay", "assay_type": "in vivo", "details": "VEGF present", "procedure": "as §5\nThe antiproliferative effect of B3CD on endothelial cells was further investigated.\nThe ability of B3CD to inhibit angiogenesis/neovascularization was tested. Preliminary studies were carried out using chick chorioallantoic membrane (CAM) assay. Calcidiol or B3CD were deposited in the presence of growth factor (VEGF) and deposited on the CAM and eggs were incubated for 3 days at 37° C. (3% CO2). The control carried the growth factor alone. VEGF induces angiogenesis which results in sprouting of capillaries from the large vessels. The compounds diffuse out and any inhibitory molecule would reduce the growth of blood vessel network."}, "[5]": {"details": "mouse, in vivo", "procedure": "FIG. 6A. In vivo studies to determine apparent systemic toxicity of B3CD. Mice were injected with the specified amounts of B3CD (i.p.) once in 48 hr for 28 days. The animals were weighed to assess the effect of B3CD on change in body weight.\nFIG. 6B. At the end of the experiment (6A) mice were sacrificed and blood collected to estimate serum calcium as a measure of hypercalcemia.\nA major concern was the potential systemic toxicity of B3CD due to hypercalcemia since B3CD (FIG. 1) is a derivative of calcidiol, which is a family member of calcitriol (Schmidt-Gayk H, Bouillon R, Roth H J. Measurement of vitamin D and its metabolites (calcidiol and calcitriol) and their clinical significance. Scand J Clin Lab Invest Suppl. 1997; 227:35-45). Therapeutic doses of calcitriol lead to increased serum calcium and consequently death; therefore, hypercalcemia is a hallmark of lethality of pharmacologic doses of calcitriol. In the event that further testing in vivo might show lethal calcemic side effects, preliminary studies were carried out to determine any overt toxic effects in a murine model.\nThe effect of B3CD on serum calcium levels in SCID mice was tested. These studies were carried out in Boston University School of Medicine, Boston, Mass., in accordance with institutional guidelines. B3CD, calcidiol and calcitriol were formulated in 80% polyethylene glycol in PBS and were administered as i.p. injections once in 48 hours for 28 days. Animals were euthanized, sera collected and analyzed immediately for serum calcium in the hospital core facility. The animals were divided into 4 groups of 5 animals each."}}, "note": "The star is where a group is joined. Cbz = O=C(OCc1ccccc1)*; CH2F = FC*"}
{"compound": "Cbz-LEHD-CH2F [reference compound]", "values": [{"measurement": "effect of pretreatment on B3CD induced apoptosis", "setting": "SMS-KCNR cells", "result": "effectively inhibited apoptosis"}, {"measurement": "effect of pretreatment on B3CD induced apoptosis", "setting": "IMR-32 cells", "result": "effectively inhibited apoptosis"}]}
{"compound": "COc1cccc2c1C(=O)c1c(O)c3c(c(O)c1C2=O)C[C@@](O)(C(=O)CO)C[C@@H]3O[C@H]1C[C@H](N)[C@H](O)[C@H](C)O1", "note": "[doxorubicin]", "values": [{"measurement": "apoptosis and activation of caspase-9 and -3", "setting": "[1]", "result": "undergo apoptosis and activation of caspase-9 and -3"}]}
{"compound": "C=C1CC[C@H](O)C/C1=C/C=C1\\CCC[C@@]2(C)C1CC[C@@H]2[C@H](C)CCCC(C)(C)O", "note": "(stereo partly drawn) [calcidiol, (1 S,Z)-3-(2-((1R,7aR,E)-1-((R)-6-hydroxy-6-methylheptan-2-yl)-7a-methyloctahydro-4H-inden-4-ylidene)ethylidene)-4-methylenecyclohexan-1-ol, reference compound]", "values": [{"measurement": "proliferation, BrdU incorporation", "setting": "SK-N-SH cells [2]", "result": "did not show inhibitory activity"}, {"measurement": "viability of SK-N-SH cells (in words)", "setting": "SK-N-SH cells [3]", "result": "did not show any similar effects"}, {"measurement": "antiproliferative, cytotoxic, apoptotic activities", "setting": "panel of cancer cells", "result": "did not exhibit any antiproliferative, cytotoxic, apoptotic activities"}, {"measurement": "caspase-3 activation (in words)", "setting": "caspase-3", "result": "did not show any significant change"}, {"measurement": "inhibition of angiogenesis / neovascularization (in words)", "setting": "[4]", "result": "no inhibition of neovascularization"}]}
{"compound": "C=C1/C(=C\\C=C2/CCC[C@]3(C)[C@@H]([C@H](C)CCCC(C)(C)O)CC[C@@H]23)C[C@@H](O)C[C@@H]1O", "note": "[calcitriol, 1,25-dihydroxy-vitamin D3, reference compound]", "values": [{"measurement": "clinical signs (lethargy, tolerance to handling, mobility)", "setting": "[5]", "result": "appeared lethargic and exhibited a decreased tolerance to handling with reduced mobility"}]}
